Common to all, as to assay: Cell viability (CCK-8) assay
Common to all, as to assay type: cell-based

The subject of one experiment is NCI-H929. Here is the method:
(§1) The plated at a density of 15,000 cells per well, and each well contained 100 µL of medium. Subsequently, different compounds (MGD-AX, MGD-BX, MGD-CX) were added to each well. […] To evaluate the antiproliferative effects of these compounds, the Cell Counting Kit-8 (CCK-8, #CX007, Epizyme, Shanghai, China) was used. All procedures were carried out in strict accordance with the manufacturer’s instructions (Dojindo Laboratories, Mamoto Ken, Japan).

A further experiment deals with Ocl-Ly3. To be noted: 96 h, CCK-8. Here is the method: as §1
A further experiment deals with MV-4-11. To be noted: 96 h, CCK-8. As to the method: as §1

This is an account of results in paper PMC12494099, “Discovery and Characterization of Novel IKZF1/3 Glue Degraders against Multiple Hematological Cancer Cell Lines” (Oncology Research, 2025).

The IC50 is the concentration that gives 50% inhibition. In the case of `CC1CCCC(C)N1C(=O)c1cccc(C(=O)NC2CCC(=O)NC2=O)c1` (stereo not drawn) [MGD-A13, 3-(2,6-dimethylpiperidine-1-carbonyl)-N-(2,6-dioxopiperidin-3-yl)benzamide], the half-inhibitory concentration (IC50) is 10.3 ± 0.98 µM in the experiment with NCI-H929 (Homo sapiens, NCI-H929, 96 h); 17.2 ± 1.64 µM with Ocl-Ly3; 9.26 ± 0.88 µM in the experiment with MV-4-11 (Homo sapiens, MV4-11, 96 h).
With “N-(2,6-dioxopiperidin-3-yl)-2-fluoro-3-(piperidin-1-ylmethyl)benzamide [MGD-C1]”, the IC50 in the experiment with NCI-H929 (96 h) amounted to 6.91 ± 0.66 µM; in the experiment with Ocl-Ly3, 12.6 ± 1.2 µM; in the experiment on MV-4-11 it was 7.36 ± 0.7 µM.
As for `O=C1CCC(NC(=O)c2cccc(CN3CCSCC3)c2F)C(=O)N1` (stereo not drawn) [MGD-C4, N-(2,6-dioxopiperidin-3-yl)-2-fluoro-3-(thiomorpholinomethyl)benzamide], the IC50 turned out to be 1.79 ± 0.27 µM with NCI-H929 (Homo sapiens, NCI-H929, 96 h); 5.01 ± 0.48 µM with Ocl-Ly3; 2.43 ± 0.33 µM in the experiment with MV-4-11 (Homo sapiens, MV4-11, 96 h).
For `O=C1CCC(NC(=O)c2cccc(CN3CCOCC3=O)n2)C(=O)N1` (stereo not drawn) [MGD-B9, N-(2,6-dioxopiperidin-3-yl)-6-((3-oxomorpholino)methyl)picolinamide] the same measures were 2.34 ± 0.22 µM, 9.35 ± 0.89 µM and 1.93 ± 0.18 µM.
For `Nc1cccc2c1CN(C1CCC(=O)NC1=O)C2=O` (stereo not drawn) [Lenalidomide, reference compound] the same measures were 7.36 ± 0.7 µM, 27.6 ± 2.63 µM and 17.9 ± 1.7 µM.
On to “N-(2,6-dioxopiperidin-3-yl)-3-(thiomorpholinomethyl)cyclohexa-1,3-diene-1-carboxamide [MGD-A9]”, for which the IC50 with NCI-H929 (96 h) stood at 2.11 ± 0.2 µM; in the experiment on Ocl-Ly3, 5.44 ± 0.52 µM; in the experiment on MV-4-11, 1.9 ± 0.18 µM.
With `O=C1CCC(NC(=O)c2cccc(CN3CCCCC3)n2)C(=O)N1` (stereo not drawn) [MGD-B2, N-(2,6-dioxopiperidin-3-yl)-6-(piperidin-1-ylmethyl)picolinamide], the IC50 was 8.5 ± 0.81 µM in the experiment with NCI-H929 (Homo sapiens, NCI-H929, 96 h); > 33 µM in the experiment on Ocl-Ly3; 6.78 ± 0.65 µM in the experiment with MV-4-11 (Homo sapiens, MV4-11, 96 h).
For `O=C1CCC(NC(=O)c2cccc(CN3CCOCC3=O)c2F)C(=O)N1` (stereo not drawn) [MGD-C7, N-(2,6-dioxopiperidin-3-yl)-2-fluoro-3-((3-oxomorpholino)methyl)benzamide] the same measures were 0.93 ± 0.15 µM, 2.11 ± 0.2 µM and 0.68 ± 0.07 µM.
For `O=C1CCC(NC(=O)c2cccc(CN3CCOCC3)n2)C(=O)N1` (stereo not drawn) [MGD-B4, N-(2,6-dioxopiperidin-3-yl)-6-(morpholinomethyl)picolinamide] the same measures were 4.65 ± 0.44 µM, 15 ± 1.42 µM and 3.02 ± 0.29 µM.
For `O=C1CCC(NC(=O)c2cccc(CN3CCCC3=O)c2F)C(=O)N1` (stereo not drawn) [MGD-C5, N-(2,6-dioxopiperidin-3-yl)-2-fluoro-3-((2-oxopyrrolidin-1-yl)methyl)benzamide] the same measures were 2.04 ± 0.19 µM, 5.05 ± 0.48 µM and 2.22 ± 0.21 µM.
As to `O=C1CCC(NC(=O)c2cccc(CN3CCCCC3=O)n2)C(=O)N1` (stereo not drawn) [MGD-B7, N-(2,6-dioxopiperidin-3-yl)-6-((2-oxopiperidin-1-yl)methyl)picolinamide], the IC50 was 3.21 ± 0.31 µM in the experiment on NCI-H929 (Homo sapiens, NCI-H929, 96 h); 15.2 ± 1.44 µM in the experiment with Ocl-Ly3; 5.65 ± 0.54 µM in the experiment with MV-4-11 (Homo sapiens, MV4-11, 96 h).
On to “N-(2,6-dioxopiperidin-3-yl)-2-fluoro-3-((2-oxopiperidin-1-yl)methyl)benzamide [MGD-C8]”, for which the results for the IC50 in the experiment with NCI-H929 (96 h), in the experiment on Ocl-Ly3 and with MV-4-11 were 1.23 ± 0.12 µM, 3.28 ± 0.31 µM and 1.73 ± 0.17 µM, respectively.
Consider `CC1CCCN(Cc2cccc(C(=O)NC3CCC(=O)NC3=O)c2)C1` (stereo not drawn) [MGD-A4, N-(2,6-dioxopiperidin-3-yl)-3-((3-methylpiperidin-1-yl)methyl)benzamide], for which the IC50 in the experiment on NCI-H929 (Homo sapiens, NCI-H929, 96 h) amounted to 4.56 ± 0.44 µM; with Ocl-Ly3, 6.33 ± 0.6 µM; in the experiment on MV-4-11 (Homo sapiens, MV4-11, 96 h) it was 3.11 ± 0.3 µM.
For `O=C1CCC(NC(=O)c2cccc(C(=O)N3CCSCC3)c2)C(=O)N1` (stereo not drawn) [MGD-A15, N-(2,6-dioxopiperidin-3-yl)-3-(thiomorpholine-4-carbonyl)benzamide] the same measures were 6.9 ± 0.66 µM, 9.43 ± 0.9 µM and 4.45 ± 0.42 µM.
For `O=C1CCC(NC(=O)c2cccc(CN3CCCC3=O)n2)C(=O)N1` (stereo not drawn) [MGD-B6, N-(2,6-dioxopiperidin-3-yl)-6-((2-oxopyrrolidin-1-yl)methyl)picolinamide] the same measures were 4.89 ± 0.47 µM, 27.5 ± 2.62 µM and 3.34 ± 0.32 µM.
For `CC1CCN(Cc2cccc(C(=O)NC3CCC(=O)NC3=O)c2)CC1` (stereo not drawn) [MGD-A5, N-(2,6-dioxopiperidin-3-yl)-3-((4-methylpiperidin-1-yl)methyl)benzamide] the same measures were 2.88 ± 0.28 µM, 4.03 ± 0.38 µM and 2.03 ± 0.19 µM.
As to `CCN1CCN(Cc2cccc(C(=O)NC3CCC(=O)NC3=O)c2)CC1` (stereo not drawn) [MGD-A8, N-(2,6-dioxopiperidin-3-yl)-3-((4-ethylpiperazin-1-yl)methyl)benzamide], the IC50 amounted to 0.9 ± 0.13 µM with NCI-H929 (Homo sapiens, NCI-H929, 96 h); 4.12 ± 0.39 µM in the experiment with Ocl-Ly3; 0.8 ± 0.1 µM with MV-4-11 (Homo sapiens, MV4-11, 96 h).
For `O=C1CCC(NC(=O)c2cccc(CN3CCOCC3)c2F)C(=O)N1` (stereo not drawn) [MGD-C3, N-(2,6-dioxopiperidin-3-yl)-2-fluoro-3-(morpholinomethyl)benzamide] the same measures were 1.98 ± 0.19 µM, 2.39 ± 0.23 µM and 0.93 ± 0.048 µM.
`O=C1CCC(NC(=O)c2cccc(CNCC3CC3)c2)C(=O)N1` (stereo not drawn) [MGD-A2, 3-(((cyclopropylmethyl)amino)methyl)-N-(2,6-dioxopiperidin-3-yl)benzamide]: the IC50 in the experiment with NCI-H929 (Homo sapiens, NCI-H929, 96 h) was found to be 12.7 ± 1.21 µM; in the experiment on Ocl-Ly3, 21.3 ± 2.03 µM; in the experiment on MV-4-11 (Homo sapiens, MV4-11, 96 h), 8.3 ± 0.79 µM.
Consider `O=C1CCC(N2C(=O)c3ccccc3C2=O)C(=O)N1` (stereo not drawn) [Thalidomide, reference compound], for which the IC50 in the experiment with NCI-H929 (Homo sapiens, NCI-H929, 96 h) is 9.86 ± 0.94 µM; in the experiment with Ocl-Ly3, > 33 µM; in the experiment with MV-4-11 (Homo sapiens, MV4-11, 96 h), 26.5 ± 2.52 µM.
For `CN1CCN(Cc2cccc(C(=O)NC3CCC(=O)NC3=O)n2)CC1` (stereo not drawn) [MGD-B3, N-(2,6-dioxopiperidin-3-yl)-6-((4-methylpiperazin-1-yl)methyl)picolinamide] the same measures were 0.92 ± 0.12 µM, 2.03 ± 0.39 µM and 0.72 ± 0.13 µM.
For `O=C1CCC(NC(=O)c2cccc(CN3CCCCC3=O)c2F)C(=O)N1` (stereo not drawn) [MGD-C6, N-(2,6-dioxopiperidin-3-yl)-2-fluoro-3-((2-oxopiperidin-1-yl)methyl)benzamide] the same measures were 1.33 ± 0.13 µM, 5.95 ± 0.57 µM and 1.63 ± 0.16 µM.
For `O=C1CCC(NC(=O)c2cccc(CN3CCCC3)n2)C(=O)N1` (stereo not drawn) [MGD-B1, N-(2,6-dioxopiperidin-3-yl)-6-(pyrrolidin-1-ylmethyl)picolinamide] the same measures were 7.9 ± 0.75 µM, 22.4 ± 2.13 µM and 15 ± 1.42 µM.
In the case of `CN1CCN(Cc2cccc(C(=O)NC3CCC(=O)NC3=O)c2F)CC1` (stereo not drawn) [MGD-C2, N-(2,6-dioxopiperidin-3-yl)-2-fluoro-3-((4-methylpiperazin-1-yl)methyl)benzamide], the IC50 in the experiment with NCI-H929 (Homo sapiens, NCI-H929, 96 h) was found to be 0.77 ± 0.04 µM; with Ocl-Ly3, 1.64 ± 0.37 µM; with MV-4-11 (Homo sapiens, MV4-11, 96 h), 0.54 ± 0.05 µM.
Regarding `O=C1CCC(NC(=O)c2cccc(CN3CCSCC3=O)n2)C(=O)N1` (stereo not drawn) [MGD-B10, N-(2,6-dioxopiperidin-3-yl)-6-((3-oxothiomorpholino)methyl)picolinamide], the IC50 with NCI-H929 (Homo sapiens, NCI-H929, 96 h) was 4.32 ± 0.41 µM; in the experiment with Ocl-Ly3, 13.2 ± 1.26 µM; with MV-4-11 (Homo sapiens, MV4-11, 96 h), 5.54 ± 0.53 µM.
For `O=C1CCC(NC(=O)c2cccc(CN3CCSCC3)n2)C(=O)N1` (stereo not drawn) [MGD-B5, N-(2,6-dioxopiperidin-3-yl)-6-(thiomorpholinomethyl)picolinamide] the same measures were 2.77 ± 0.36 µM, 4.68 ± 2.44 µM and 1.58 ± 0.47 µM.
For `O=C1CCC(NC(=O)c2cccc(CNC3CC3)c2)C(=O)N1` (stereo not drawn) [MGD-A1, 3-((cyclopropylamino)methyl)-N-(2,6-dioxopiperidin-3-yl)benzamide] the same measures were 10.3 ± 0.98 µM, > 33 µM and 7.34 ± 0.7 µM.
For `CC1CCCCN1Cc1cccc(C(=O)NC2CCC(=O)NC2=O)c1` (stereo not drawn) [MGD-A3, N-(2,6-dioxopiperidin-3-yl)-3-((2-methylpiperidin-1-yl)methyl)benzamide] the same measures were 5.39 ± 0.51 µM, 7.27 ± 0.69 µM and 6.03 ± 0.58 µM.
On to `CN1CCN(Cc2cccc(C(=O)NC3CCC(=O)NC3=O)n2)C(=O)C1` (stereo not drawn) [MGD-B8, N-(2,6-dioxopiperidin-3-yl)-6-((4-methyl-2-oxopiperazin-1-yl)methyl)picolinamide], for which the IC50 with NCI-H929 (Homo sapiens, NCI-H929, 96 h) is 1.77 ± 0.17 µM; in the experiment on Ocl-Ly3, 8.43 ± 0.8 µM; in the experiment with MV-4-11 (Homo sapiens, MV4-11, 96 h) it was 1.33 ± 0.13 µM.
Consider `CC1CCCC(C)N1Cc1cccc(C(=O)NC2CCC(=O)NC2=O)c1` (stereo not drawn) [MGD-A6, 3-((2,6-dimethylpiperidin-1-yl)methyl)-N-(2,6-dioxopiperidin-3-yl)benzamide], for which the IC50 is 3.02 ± 0.38 µM in the experiment with NCI-H929 (Homo sapiens, NCI-H929, 96 h); 5.9 ± 0.56 µM in the experiment with Ocl-Ly3; 3.44 ± 0.33 µM in the experiment on MV-4-11 (Homo sapiens, MV4-11, 96 h).
